In ChEMBL document CHEMBL4813955 (Eur J Med Chem, 2021):
Calls of active or inactive are those of the source. No cut-off for these calls is given here.

Columns and labels:
[1] = biological target: T1, D(4) dopamine receptor (Homo sapiens) (UniProt P21917); experiment: Displacement of [3H]N-methylspiperone from human dopamine D4 receptor at 10 uM incubated for 1 hr by liquid scintillation counting method
T1 sequence (whole entry): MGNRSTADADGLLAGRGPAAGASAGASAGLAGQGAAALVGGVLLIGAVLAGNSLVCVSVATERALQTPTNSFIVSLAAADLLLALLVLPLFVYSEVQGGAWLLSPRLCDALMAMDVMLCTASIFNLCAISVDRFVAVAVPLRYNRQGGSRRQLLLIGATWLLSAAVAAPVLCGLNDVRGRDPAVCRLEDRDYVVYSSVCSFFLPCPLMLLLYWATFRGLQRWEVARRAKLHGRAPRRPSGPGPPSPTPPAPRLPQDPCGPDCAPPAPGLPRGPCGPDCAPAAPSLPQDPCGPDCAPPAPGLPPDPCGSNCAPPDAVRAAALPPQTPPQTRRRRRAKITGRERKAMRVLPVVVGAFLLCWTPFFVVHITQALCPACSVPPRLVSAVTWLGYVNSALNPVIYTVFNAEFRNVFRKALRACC

[2] = biological target: T2, 5-hydroxytryptamine receptor 2C (Homo sapiens) (UniProt P28335); experiment: Displacement of [3H]-Mesulergine from human 5-HT2C receptor at 10 uM incubated for 1 hr by liquid scintillation counting method
T2 sequence (whole entry): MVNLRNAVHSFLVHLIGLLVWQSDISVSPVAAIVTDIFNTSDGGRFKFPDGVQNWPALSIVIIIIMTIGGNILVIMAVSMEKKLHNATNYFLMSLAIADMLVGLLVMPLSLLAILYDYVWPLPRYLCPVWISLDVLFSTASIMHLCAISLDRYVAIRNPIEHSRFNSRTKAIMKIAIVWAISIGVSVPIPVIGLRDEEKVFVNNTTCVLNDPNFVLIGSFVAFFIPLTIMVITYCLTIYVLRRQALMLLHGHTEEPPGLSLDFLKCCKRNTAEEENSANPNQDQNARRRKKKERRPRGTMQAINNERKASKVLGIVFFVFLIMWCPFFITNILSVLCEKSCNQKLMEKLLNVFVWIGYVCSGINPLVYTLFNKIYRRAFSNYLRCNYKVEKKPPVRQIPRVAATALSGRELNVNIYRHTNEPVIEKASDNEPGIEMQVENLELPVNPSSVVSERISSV

[3] = biological target: D(2) dopamine receptor (Homo sapiens, UniProt P14416); experiment: Displacement of [3H]N-methylspiperone from human dopamine D2 receptor at 10 uM incubated for 1 hr by liquid scintillation counting method
[4] = biological target: D(3) dopamine receptor (Homo sapiens, UniProt P35462); experiment: Displacement of [3H]N-methylspiperone from human dopamine D3 receptor at 10 uM incubated for 1 hr by liquid scintillation counting method
Sequence of D(3) dopamine receptor (P35462 whole entry): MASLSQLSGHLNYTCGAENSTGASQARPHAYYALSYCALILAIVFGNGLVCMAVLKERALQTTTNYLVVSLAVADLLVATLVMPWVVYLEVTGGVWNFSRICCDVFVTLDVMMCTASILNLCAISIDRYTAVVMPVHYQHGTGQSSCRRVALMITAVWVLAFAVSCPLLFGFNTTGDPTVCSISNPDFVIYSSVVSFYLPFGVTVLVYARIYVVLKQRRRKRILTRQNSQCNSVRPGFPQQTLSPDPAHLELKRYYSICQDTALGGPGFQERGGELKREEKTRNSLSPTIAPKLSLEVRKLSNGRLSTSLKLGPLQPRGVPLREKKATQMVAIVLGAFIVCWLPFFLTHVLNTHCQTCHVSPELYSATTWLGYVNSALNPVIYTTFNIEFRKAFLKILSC

Sequence of D(2) dopamine receptor (P14416 whole entry): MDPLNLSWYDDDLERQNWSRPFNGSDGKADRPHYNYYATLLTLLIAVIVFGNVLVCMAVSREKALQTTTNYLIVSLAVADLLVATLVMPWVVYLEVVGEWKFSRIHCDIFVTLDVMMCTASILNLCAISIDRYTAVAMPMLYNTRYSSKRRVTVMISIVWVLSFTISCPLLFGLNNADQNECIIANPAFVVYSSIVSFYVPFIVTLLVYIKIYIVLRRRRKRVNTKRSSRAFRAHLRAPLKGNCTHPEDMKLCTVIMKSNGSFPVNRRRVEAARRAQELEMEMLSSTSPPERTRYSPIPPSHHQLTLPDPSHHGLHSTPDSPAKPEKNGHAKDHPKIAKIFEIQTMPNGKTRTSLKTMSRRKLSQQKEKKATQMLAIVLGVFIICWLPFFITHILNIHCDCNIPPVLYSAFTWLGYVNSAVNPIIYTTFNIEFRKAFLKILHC

Row | SMILES | inhibition [2] | inhibition [3] | further results
1 | O=C1CCc2cc(OCCCN3CCCN(c4ccccn4)CC3)ccc2N1 |  |  | inhibition [1]: inactive
2 | O=C1CCc2cc(C(=O)CCCN3CCN(c4ccccn4)CC3)ccc2N1 | inactive |  | 
3 | Nc1ccc(CCCCN2CCN(c3ccccn3)CC2)cc1 | inactive |  | 
4 | OC1c2ccc(F)cc2CC1CCN1CCN(c2ccccn2)CC1 (stereo not given) | inactive |  | 
5 | O=C1CCc2cc(OCCCN3CCN(c4ccccn4)CC3)ccc21 |  | inactive | 

Further lines, with some results ahead:

Row | inhibition [2] | inhibition [3] | SMILES | further results
6 |  | inactive | O=C1c2ccc(Cl)cc2CC1CCN1CCN(c2ccccn2)CC1 (stereo not given) | inhibition [4]: inactive
7 | inactive | inactive | O=C1c2ccc(F)cc2CC1CCN1CCN(c2ccccn2)CC1 (stereo not given) | 
8 |  | inactive | O=C1c2ccc(Cl)cc2CC1CCCN1CCN(c2ccccn2)CC1 (stereo not given) | 
